Data as given in US20030054291A1, “Optical data storage medium containing a hemicyanine dye as the light-absorbing compound in the information layer” (priority 2001, published 2003).

Test: Solubility in TFP (2,2,3,3-tetrafluoropropanol)
Assay type: physicochemical
Text: Solubility: >2% in TFP (2,2,3,3-tetrafluoropropanol)

- Solubility: > 2%
Structure (SMILES): CN(C)c1ccc(/C=C/C2=[N+](C)c3ccccc3C2(C)C)o1 [Example 1]
